Measurements from patent US9938322B2, “β-hairpin peptidomimetics” (priority 2013, dated 2018).
Where a SMILES comes first, the peptide text is derived from it. [ ]: non-standard residue; d: D form. Oic = O=C(O)[C@@H]1C[C@@H]2CCCC[C@@H]2N1; Cha = N[C@@H](CC1CCCCC1)C(=O)O; Agp = N=C(N)NC[C@H](N)C(=O)O; Chg = N[C@H](C(=O)O)C1CCCCC1; Tle = CC(C)(C)[C@H](N)C(=O)O; dDab = NCC[C@@H](N)C(=O)O; Orn = NCCC[C@H](N)C(=O)O; Dab = NCC[C@H](N)C(=O)O; Nva = CCC[C@H](N)C(=O)O; Dap = NC[C@H](N)C(=O)O

These compounds were tested on human red blood cells (hRBC) (assay: Hemolysis of human red blood cells). Details: red cells of human, 1 h, 100.
Format: cell-based
How it was run: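 Washed fresh human erythrocytes (20% v/v, about 0.9×10^9 cells/ml final) incubated with peptide at 100 μg/ml for 1 h at 37° C with shaking. Supernatant OD540 read; hemolysis expressed relative to 2.5% Triton X-100 (100%) and PBS with 0.001% acetic acid (0%).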

`CC(C)C[C@@H]1NC(=O)[C@@H]2CCCN2C(=O)[C@H]2CCCN2C(=O)[C@H](CO)NC(=O)[C@H](C)NC(=O)[C@H](C(C)(C)C)NC(=O)[C@H](CCN)NC(=O)[C@H](Cc2c[nH]c3ccccc23)NC(=O)[C@H](CCCN)NC(=O)[C@@H](CCN)NC(=O)[C@H](CCCN)NC(=O)[C@H](CCN)NC(=O)[C@H](Cc2ccc(O)cc2)NC(=O)[C@H](CO)NC1=O` [compound 99] (cyclo(LSY[Dab][Orn][dDab][Orn]W[Dab][Tle]AS[dP]P)) and `CC(C)C[C@@H]1NC(=O)[C@@H]2CCCN2C(=O)[C@H]2CCCN2C(=O)[C@H](CO)NC(=O)[C@H](C)NC(=O)[C@H](C(C)(C)C)NC(=O)[C@H](CCN)NC(=O)[C@H](Cc2c[nH]c3ccccc23)NC(=O)[C@H](CCN)NC(=O)[C@@H](CCN)NC(=O)[C@H](CCCN)NC(=O)[C@H](CCN)NC(=O)[C@H](Cc2ccc(O)cc2)NC(=O)[C@H](CN)NC1=O` [compound 145] (cyclo(L[Dap]Y[Dab][Orn][dDab][Dab]W[Dab][Tle]AS[dP]P)) are the same in “Hemolysis at 100 μg/ml” value: 0% for the first, 0% for the second.

Compared with `COC[C@@H]1NC(=O)[C@H](C(C)(C)C)NC(=O)[C@H](CCN)NC(=O)[C@H](Cc2c[nH]c3ccccc23)NC(=O)[C@H](CCN)NC(=O)[C@@H](CCN)NC(=O)[C@H](CCCN)NC(=O)[C@H](CCN)NC(=O)[C@H](CC2CCCCC2)NC(=O)[C@H](C)NC(=O)[C@H](Cc2c[nH]c3ccccc23)NC(=O)[C@@H]2C[C@@H]3CCCC[C@@H]3N2C(=O)[C@H]2CCCN2C(=O)[C@H](CO)NC1=O` [Ex. 54, cyclo(-Trp-Ala-Cha-Dab-Orn-^DDab-Dab-Trp-Dab-tBuGly-Ser(Me)-Ser-^DPro-Oic-)] (cyclo(A[Cha][Dab][Orn][dDab][Dab]W[Dab][Tle]S(Me)S[dP][Oic]W)), `COC[C@@H]1NC(=O)[C@H](Cc2c[nH]c3ccccc23)NC(=O)[C@@H]2CCCN2C(=O)[C@H]2CCCN2C(=O)[C@H](CO)NC(=O)[C@H](C)NC(=O)[C@H](C(C)(C)C)NC(=O)[C@H](CCN)NC(=O)[C@H](Cc2c[nH]c3ccccc23)NC(=O)[C@H](CCN)NC(=O)[C@@H](CCN)NC(=O)[C@H](CCCN)NC(=O)[C@H](CCN)NC(=O)[C@H](CC2CCCCC2)NC1=O` [compound 2] (cyclo(WS(Me)[Cha][Dab][Orn][dDab][Dab]W[Dab][Tle]AS[dP]P)) is lower in “Hemolysis at 100 μg/ml” value: 3% for the first, 1.7% for the second.

Compared with `CC(C)C[C@@H]1NC(=O)[C@@H]2CCCN2C(=O)[C@H]2CCCN2C(=O)[C@H](CO)NC(=O)[C@H](Cc2ccc(O)cc2)NC(=O)[C@H](C(C)(C)C)NC(=O)[C@H](CCN)NC(=O)[C@H](Cc2c[nH]c3ccccc23)NC(=O)[C@H](CCN)NC(=O)[C@@H](CCN)NC(=O)[C@H](CCCN)NC(=O)[C@H](CCN)NC(=O)[C@H](Cc2ccc(O)cc2)NC(=O)[C@H](CC(=O)O)NC1=O` [compound 112] (cyclo(LDY[Dab][Orn][dDab][Dab]W[Dab][Tle]YS[dP]P)), `CC(C)C[C@@H]1NC(=O)[C@@H]2CCCN2C(=O)[C@H]2CCCN2C(=O)[C@H](CO)NC(=O)[C@H](CCN)NC(=O)[C@H](C(C)(C)C)NC(=O)[C@H](CCN)NC(=O)[C@H](Cc2c[nH]c3ccccc23)NC(=O)[C@H](CCN)NC(=O)[C@@H](CCN)NC(=O)[C@H](CCCN)NC(=O)[C@H](CCN)NC(=O)[C@H](Cc2ccc(O)cc2)NC(=O)[C@H](CC(=O)O)NC1=O` [compound 114] (cyclo(LDY[Dab][Orn][dDab][Dab]W[Dab][Tle][Dab]S[dP]P)) is higher in “Hemolysis at 100 μg/ml” value: 0% for the first, 0.5% for the second.

Going from `CC(C)C[C@@H]1NC(=O)[C@@H]2CCCN2C(=O)[C@H]2CCCN2C(=O)[C@H](CO)NC(=O)[C@H]([C@@H](C)O)NC(=O)[C@H](C(C)(C)C)NC(=O)[C@H](CCN)NC(=O)[C@H](Cc2c[nH]c3ccccc23)NC(=O)[C@H](CCN)NC(=O)[C@@H](CCN)NC(=O)[C@H](CCCN)NC(=O)[C@H](CCN)NC(=O)[C@H](Cc2ccc(O)cc2)NC(=O)[C@H](CC(N)=O)NC1=O` [compound 120] (cyclo(LNY[Dab][Orn][dDab][Dab]W[Dab][Tle]TS[dP]P)) to `CC(C)C[C@@H]1NC(=O)[C@@H]2CCCN2C(=O)[C@H]2CCCN2C(=O)[C@H]([C@@H](C)O)NC(=O)[C@H](CO)NC(=O)[C@H](C(C)(C)C)NC(=O)[C@H](CCN)NC(=O)[C@H](Cc2c[nH]c3ccccc23)NC(=O)[C@H](CCN)NC(=O)[C@@H](CCN)NC(=O)[C@H](CCN)NC(=O)[C@H](CCN)NC(=O)[C@H](Cc2ccc(O)cc2)NC(=O)[C@H]([C@@H](C)O)NC1=O` [compound 124] (cyclo(LTY[Dab][Dab][dDab][Dab]W[Dab][Tle]ST[dP]P)), the “Hemolysis at 100 μg/ml” value rises from 0% to 0.5%.

Compared with `CC[C@H](C)[C@@H]1NC(=O)[C@@H]2CCCN2C(=O)[C@H]2CCCN2C(=O)[C@H](CO)NC(=O)[C@H](C)NC(=O)[C@H](Cc2c[nH]c3ccccc23)NC(=O)[C@H](CCN)NC(=O)[C@H](Cc2c[nH]c3ccccc23)NC(=O)[C@H](CCN)NC(=O)[C@@H](CCN)NC(=O)[C@H](CCCN)NC(=O)[C@H](CCN)NC(=O)[C@H](Cc2ccc(O)cc2)NC(=O)[C@H](CO)NC1=O` [compound 110] (cyclo(ISY[Dab][Orn][dDab][Dab]W[Dab]WAS[dP]P)), `C[C@@H]1NC(=O)[C@H](CC2CCCCC2)NC(=O)[C@H](CCN)NC(=O)[C@H](Cc2c[nH]c3ccccc23)NC(=O)[C@H](CCN)NC(=O)[C@@H](CCN)NC(=O)[C@H](CCCCN)NC(=O)[C@H](CCN)NC(=O)[C@H](Cc2ccc(O)cc2)NC(=O)[C@H](C)NC(=O)[C@H](Cc2c[nH]c3ccccc23)NC(=O)[C@@H]2CCCN2C(=O)[C@H]2CCCN2C(=O)[C@H](CO)NC1=O` [compound 76] (cyclo(WAY[Dab]K[dDab][Dab]W[Dab][Cha]AS[dP]P)) is higher in “Hemolysis at 100 μg/ml” value: 1% for the first, 2% for the second.

Going from `CC(C)C[C@@H]1NC(=O)[C@@H]2CCCN2C(=O)[C@H]2CCCN2C(=O)[C@H](CO)NC(=O)[C@H](CO)NC(=O)[C@H](C(C)(C)C)NC(=O)[C@H](CCN)NC(=O)[C@H](Cc2c[nH]c3ccccc23)NC(=O)[C@H](CCN)NC(=O)[C@H](CCN)NC(=O)[C@H](CCCN)NC(=O)[C@H](CCN)NC(=O)[C@H](CC2CCCCC2)NC(=O)[C@H](CO)NC1=O` [compound 143] (cyclo(LS[Cha][Dab][Orn][Dab][Dab]W[Dab][Tle]SS[dP]P)) to `CC(C)C[C@@H]1NC(=O)[C@@H]2CCCN2C(=O)[C@H]2CCCN2C(=O)[C@H](CO)NC(=O)[C@H](CO)NC(=O)[C@H](C(C)(C)C)NC(=O)[C@H](CCN)NC(=O)[C@H](Cc2c[nH]c3ccccc23)NC(=O)[C@H](CCN)NC(=O)[C@@H](CCN)NC(=O)[C@H](CCCN)NC(=O)[C@H](CCN)NC(=O)[C@H](CC2CCCCC2)NC(=O)[C@H](C)NC1=O` [compound 152] (cyclo(LA[Cha][Dab][Orn][dDab][Dab]W[Dab][Tle]SS[dP]P)), the “Hemolysis at 100 μg/ml” value rises from 0% to 5%.

First: C[C@@H]1NC(=O)[C@H](Cc2c[nH]c3ccccc23)NC(=O)[C@@H]2CCCN2C(=O)[C@H]2CCCN2C(=O)[C@H](CO)NC(=O)[C@H](CNC(=N)N)NC(=O)[C@H](C(C)(C)C)NC(=O)[C@H](CCN)NC(=O)[C@H](Cc2c[nH]c3ccccc23)NC(=O)[C@H](CCN)NC(=O)[C@@H](CCN)NC(=O)[C@H](CCCN)NC(=O)[C@H](CCN)NC(=O)[C@H](CC2CCCCC2)NC1=O [compound 23] (cyclo(WA[Cha][Dab][Orn][dDab][Dab]W[Dab][Tle][Agp]S[dP]P))
Second: CC(C)C[C@@H]1NC(=O)[C@@H]2CCCN2C(=O)[C@H]2CCCN2C(=O)[C@H](CO)NC(=O)[C@H](C)NC(=O)[C@H](C2CCCCC2)NC(=O)[C@H](CCN)NC(=O)[C@H](Cc2c[nH]c3ccccc23)NC(=O)[C@H](CCN)NC(=O)[C@@H](CCN)NC(=O)[C@H](CCCN)NC(=O)[C@H](CCN)NC(=O)[C@H](C(C)(C)C)NC(=O)[C@H](CO)NC1=O [compound 137] (cyclo(LS[Tle][Dab][Orn][dDab][Dab]W[Dab][Chg]AS[dP]P))
The “Hemolysis at 100 μg/ml” value of the first is lower: 1.7% for the first, 4% for the second.

First: CC[C@H](C)[C@@H]1NC(=O)[C@@H]2CCCN2C(=O)[C@H]2CCCN2C(=O)[C@H](CO)NC(=O)[C@H](C)NC(=O)[C@H](C(C)(C)C)NC(=O)[C@H](CCN)NC(=O)[C@H](Cc2c[nH]c3ccccc23)NC(=O)[C@H](CCN)NC(=O)[C@@H](CCN)NC(=O)[C@H](CCCN)NC(=O)[C@H](CCN)NC(=O)[C@H](Cc2ccc(O)cc2)NC(=O)[C@H](CO)NC1=O [compound 44] (cyclo(ISY[Dab][Orn][dDab][Dab]W[Dab][Tle]AS[dP]P))
Second: CC(C)C[C@@H]1NC(=O)[C@@H]2CCCN2C(=O)[C@H]2CCCN2C(=O)[C@H](CO)NC(=O)[C@H](C)NC(=O)[C@H](C(C)(C)C)NC(=O)[C@H](CCN)NC(=O)[C@H](Cc2c[nH]c3ccccc23)NC(=O)[C@H](CCN)NC(=O)[C@@H](CCN)NC(=O)[C@H](CCCN)NC(=O)[C@H](CCN)NC(=O)[C@H](Cc2ccc(O)cc2)NC(=O)[C@H](C)NC1=O [compound 43] (cyclo(LAY[Dab][Orn][dDab][Dab]W[Dab][Tle]AS[dP]P))
The “Hemolysis at 100 μg/ml” value of the first is higher: 2% for the first, 1% for the second.

Compared with `CCC[C@@H]1NC(=O)[C@H](CCN)NC(=O)[C@H](Cc2c[nH]c3ccccc23)NC(=O)[C@H](CCN)NC(=O)[C@@H](CCN)NC(=O)[C@H](CCCN)NC(=O)[C@H](CCN)NC(=O)[C@H](Cc2ccc(O)cc2)NC(=O)[C@H](CO)NC(=O)[C@H](CC(C)C)NC(=O)[C@@H]2CCCN2C(=O)[C@H]2CCCN2C(=O)[C@H](CO)NC(=O)[C@H](C)NC1=O` [compound 30] (cyclo(LSY[Dab][Orn][dDab][Dab]W[Dab][Nva]AS[dP]P)), `CC(C)C[C@@H]1NC(=O)[C@@H]2CCCN2C(=O)[C@H]2CCCN2C(=O)[C@H](CO)NC(=O)[C@H](CO)NC(=O)[C@H](C2CCCCC2)NC(=O)[C@H](CCN)NC(=O)[C@H](Cc2c[nH]c3ccccc23)NC(=O)[C@H](CCN)NC(=O)[C@@H](CCN)NC(=O)[C@H](CCCN)NC(=O)[C@H](CCN)NC(=O)[C@H](Cc2ccc(O)cc2)NC(=O)[C@H](CO)NC1=O` [compound 116] (cyclo(LSY[Dab][Orn][dDab][Dab]W[Dab][Chg]SS[dP]P)) is higher in “Hemolysis at 100 μg/ml” value: 1% for the first, 3% for the second.
